Data as given in patent US8580785B2, “Insecticides” (Syngenta Crop Protection LLC, priority 2005, dated 2013).

Assays:
Spodoptera littoralis = test: Activity against Spodoptera littoralis; assay type: in vivo; conditions: 72 h, 400 ppm spray on young soya plants, 1st instar caterpillars, 3 days, read-out: percentage reduction in the population and in the feeding damage (% activity)
Procedure: (§1) Young soya plants are sprayed with an aqueous emulsion spray mixture comprising 400 ppm of active ingredient and, after the spray coating has dried on, populated with 10 caterpillars (1st instar) of Spodoptera littoralis and introduced into a plastic container. 3 days later, the percentage reduction in the population and in the feeding damage (% activity) are determined by comparing the number of dead caterpillars and the feeding damage between the treated and untreated plants.

Plutella xylostella = test: Activity against Plutella xylostella; assay type: in vivo; conditions: 72 h, 400 ppm spray on young cabbage plants, 3rd instar caterpillars, 3 days, read-out: percentage reduction in the population and in the feeding damage (% activity)
Procedure: as §1, with “cabbage” for “soya”, “(3rd” for “(1st”, “Plutella xylostella” for “Spodoptera littoralis”

[1] = test system: Frankliniella occidentalis; test: Activity against Frankliniella occidentalis; assay type: in vivo; conditions: bean leaf discs (6 days) or bean plants (14 days); mixed population
Procedure: Bean leaf discs on agar in petri dishes or bean plants in a spray chamber are treated with diluted test solutions. After drying leaf discs are cut and placed in plastic cups on the surface of an agar layer and infested with mixed population. 6 days (leaf discs) or 14 days (plants) after the infestation, samples are checked for reduction of treated population and compared to the non treated population. In this test, compounds listed in Table P above show good activity. In particular compound T7.1.7 has an activity of over 80%.

Heliothis virescens = test: Activity against Heliothis virescens (foliar application); assay type: in vivo; conditions: 144 h, 400 ppm spray on young soya plants, 1st instar caterpillars, 6 days, read-out: percentage reduction in the population and in the feeding damage (% activity)
Procedure: as §1, with “Heliothis virescens” for “Spodoptera littoralis”, “6” for “3”

Diabrotica balteata = test: Activity against Diabrotica balteata (sprayed maize seedlings); assay type: in vivo; conditions: 144 h, 400 ppm spray on maize seedlings, 2nd instar larvae, 6 days, read-out: percentage reduction in the population (% activity)
Procedure: Maize seedlings are sprayed with an aqueous emulsion spray mixture comprising 400 ppm of active ingredient and, after the spray coating has dried on, populated with 10 larvae (2nd instar) of Diabrotica balteata and introduced into a plastic container. 6 days later, the percentage reduction in the population (% activity) is determined by comparing the number of dead larvae between the treated and untreated plants.

Myzus persicae = test: Systemic insecticide test for Myzus persicae; assay type: in vivo; conditions: roots of infected pea seedlings in 400 ppm spray mixture, 20°, 3 and 6 days, read-out: percentage reduction in the population (% activity)
Procedure: Pea seedlings are infected with Myzus persicae, and their roots are subsequently placed into a spray mixture comprising 400 ppm of active ingredient. The seedlings are then incubated at 20°. 3 and 6 days later, the percentage reduction in the population (% activity) is determined by comparing the number of dead aphids between the treated and untreated plants.

CNC(=O)c1cc2[nH]cnc2c(Cl)c1NC(=O)c1cc(C(F)(F)F)nn1-c1ncccc1Cl
melting point: 190 to 192 °C

O=C(NCC1CC1)c1cc2nccnc2c(Cl)c1NC(=O)c1cc(C(F)(F)F)nn1-c1ncccc1Cl [Compound T1.1.14, 8-chloro-7-{[2-(3-chloro-pyridin-2-yl)-5-trifluoromethyl-2H-pyrazole-3-carbonyl]-amino}-quinoxaline-6-carboxylic acid cyclopropylmethyl-amide]
inhibition at 400 ppm (Spodoptera littoralis): > 80%
inhibition at 400 ppm (Plutella xylostella): > 80%

Cc1ccc2c(C)c(NC(=O)c3cc(C(F)(F)F)nn3-c3ncccc3Cl)c(C(=O)NC(C)C)cc2n1 [Compound T7.1.7]
inhibition at 400 ppm (Spodoptera littoralis): > 80%
reduction of treated population (activity) [1]: over 80%
inhibition at 400 ppm (Plutella xylostella): > 80%
inhibition at 400 ppm (Heliothis virescens): > 80%

CNC(=O)c1cc2nc(C(F)(F)F)ccc2c(C)c1NC(=O)c1cc(C(F)(F)F)nn1-c1ncccc1Cl [Compound T8.1.1, 6-{[2-(3-Chloro-pyridin-2-yl)-5-trifluoromethyl-2H-pyrazole-3-carbonyl]-amino}-5-methyl-2-trifluoromethyl-quinoline-7-carboxylic acid methyl amide]
inhibition at 400 ppm (Spodoptera littoralis): > 80%
inhibition at 400 ppm (Diabrotica balteata): > 80%
inhibition at 400 ppm (Plutella xylostella): > 80%
melting point: 227 to 230 °C

CNC(=O)c1cc2nc(C(F)(F)F)ccc2c(Cl)c1NC(=O)c1cc(C(F)(F)F)nn1-c1ncccc1Cl [Compound T8.1.2, 5-Chloro-6-{[2-(3-chloro-pyridin-2-yl)-5-trifluoromethyl-2H-pyrazole-3-carbonyl]-amino}-2-trifluoromethyl-quinoline-7-carboxylic acid methyl amide]
inhibition at 400 ppm (Spodoptera littoralis): > 80%
inhibition at 400 ppm (Diabrotica balteata): > 80%
inhibition at 400 ppm (Plutella xylostella): > 80%
melting point: 233 to 237 °C

CNC(=O)c1cc2nc(C(F)(F)F)ccc2c(OC)c1NC(=O)c1cc(C(F)(F)F)nn1-c1ncccc1Cl [Compound T8.1.121, 6-{[2-(3-Chloro-pyridin-2-yl)-5-trifluoromethyl-2H-pyrazole-3-carbonyl]-amino}-5-methoxy-2-trifluoromethyl-quinoline-7-carboxylic acid methyl amide]
inhibition at 400 ppm (Spodoptera littoralis): > 80%
inhibition at 400 ppm (Plutella xylostella): > 80%

CNC(=O)c1cc2nc(C(F)(F)F)ccc2cc1NC(=O)c1cc(Br)nn1-c1ncccc1Cl [Compound T8.1.153, 6-{[5-Bromo-2-(3-chloro-pyridin-2-yl)-2H-pyrazole-3-carbonyl]-amino}-2-trifluoromethyl-quinoline-7-carboxylic acid methyl amide]
inhibition at 400 ppm (Spodoptera littoralis): > 80%
inhibition at 400 ppm (Plutella xylostella): > 80%
melting point: 120 to 127 °C

Cc1nc2cc(C(=O)NC(C)C)c(NC(=O)c3cc(C(F)(F)F)nn3-c3ncccc3Cl)c(Cl)c2nc1C [Compound T19.1.8, 8-chloro-7-{[2-(3-chloro-pyridin-2-yl)-5-trifluoromethyl-2H-pyrazole-3-carbonyl]-amino}-2,3-dimethyl-quinoxaline-6-carboxylic acid isopropylamide]
inhibition at 400 ppm (Spodoptera littoralis): > 80%

CNC(=O)c1cc2nsnc2c(Cl)c1NC(=O)c1cc(C(F)(F)F)nn1-c1ncccc1Cl [Compound T20.1.2, 7-chloro-6-{[2-(3-chloro-pyridin-2-yl)-5-trifluoromethyl-2H-pyrazole-3-carbonyl]-amino}-benzo[1,2,5]thiadiazole-5-carboxylic acid methylamide]
inhibition at 400 ppm (Spodoptera littoralis): > 80%
inhibition at 400 ppm (Plutella xylostella): > 80%

CC(C)NC(=O)c1cc2nsnc2c(Cl)c1NC(=O)c1cc(C(F)(F)F)nn1-c1ncccc1Cl [Compound T20.1.8, 7-chloro-6-{[2-(3-chloro-pyridin-2-yl)-5-trifluoromethyl-2H-pyrazole-3-carbonyl]-amino}-benzo[1,2,5]thiadiazole-5-carboxylic acid isopropylamide]
inhibition at 400 ppm (Spodoptera littoralis): > 80%
inhibition at 400 ppm (Plutella xylostella): > 80%

O=C(NCC1CC1)c1cc2nsnc2c(Cl)c1NC(=O)c1cc(C(F)(F)F)nn1-c1ncccc1Cl [Compound T20.1.14, 7-chloro-6-{[2-(3-chloro-pyridin-2-yl)-5-trifluoromethyl-2H-pyrazole-3-carbonyl]-amino}-benzo[1,2,5]thiadiazole-5-carboxylic acid cyclopropylmethyl-amide]
inhibition at 400 ppm (Spodoptera littoralis): > 80%
inhibition at 400 ppm (Plutella xylostella): > 80%

CC(C)NC(=O)c1cc2[nH]cnc2c(Cl)c1NC(=O)c1cc(C(F)(F)F)nn1-c1ncccc1Cl [Compound T21.1.8, 7-chloro-6-{[2-(3-chloro-pyridin-2-yl)-5-trifluoromethyl-2H-pyrazole-3-carbonyl]-amino}-3H-benzoimidazole-5-carboxylic acid isopropylamide]
inhibition at 400 ppm (Spodoptera littoralis): > 80%
inhibition at 400 ppm (Plutella xylostella): > 80%
melting point: 200 to 203 °C

O=C(NCC1CC1)c1cc2[nH]cnc2c(Cl)c1NC(=O)c1cc(C(F)(F)F)nn1-c1ncccc1Cl [Compound T21.1.14]
inhibition at 400 ppm (Plutella xylostella): > 80%
melting point: 198 to 201 °C

CC(C)NC(=O)c1cc2ncn(C)c2c(Cl)c1NC(=O)c1cc(C(F)(F)F)nn1-c1ncccc1Cl [Compound T22.1.8, 7-chloro-6-{[2-(3-chloro-pyridin-2-yl)-5-trifluoromethyl-2H-pyrazole-3-carbonyl]-amino}-1-methyl-1H-benzoimidazole-5-carboxylic acid isopropylamide]
inhibition at 400 ppm (Spodoptera littoralis): > 80%
inhibition at 400 ppm (Diabrotica balteata): > 80%
inhibition at 400 ppm (Plutella xylostella): > 80%
melting point: 150 to 155 °C

Cn1cnc2cc(C(=O)NCC3CC3)c(NC(=O)c3cc(C(F)(F)F)nn3-c3ncccc3Cl)c(Cl)c21 [Compound T22.1.14]
inhibition at 400 ppm (Spodoptera littoralis): > 80%
inhibition at 400 ppm (Plutella xylostella): > 80%
melting point: 148 to 151 °C

Cc1nc2cc(C(=O)NC(C)C)c(NC(=O)c3cc(C(F)(F)F)nn3-c3ncccc3Cl)c(Cl)c2n1C [Compound T35.1.8, 7-chloro-6-{[2-(3-chloro-pyridin-2-yl)-5-trifluoromethyl-2H-pyrazole-3-carbonyl]-amino}-1,2-dimethyl-1H-benzoimidazole-5-carboxylic acid isopropylamide]
inhibition at 400 ppm (Spodoptera littoralis): > 80%
inhibition at 400 ppm (Plutella xylostella): > 80%
inhibition at 400 ppm (Myzus persicae): > 80%
melting point: 248 to 250 °C

Cc1nc2cc(C(=O)NCC3CC3)c(NC(=O)c3cc(C(F)(F)F)nn3-c3ncccc3Cl)c(Cl)c2n1C [Compound T35.1.14]
inhibition at 400 ppm (Spodoptera littoralis): > 80%
melting point: 233 to 235 °C

CC(C)NC(=O)c1cc2nc(C3CC3)n(C)c2c(Cl)c1NC(=O)c1cc(C(F)(F)F)nn1-c1ncccc1Cl [Compound T37.1.8, 7-chloro-6-{[2-(3-chloro-pyridin-2-yl)-5-trifluoromethyl-2H-pyrazole-3carbonyl]-amino}-2-cyclopropyl-1-methyl-1H-benzoimidazole-5-carboxylic acid isopropylamide]
inhibition at 400 ppm (Spodoptera littoralis): > 80%
inhibition at 400 ppm (Plutella xylostella): > 80%
melting point: 242 to 244 °C

Cn1c(C2CC2)nc2cc(C(=O)NCC3CC3)c(NC(=O)c3cc(C(F)(F)F)nn3-c3ncccc3Cl)c(Cl)c21 [Compound T37.1.14]
inhibition at 400 ppm (Spodoptera littoralis): > 80%
inhibition at 400 ppm (Plutella xylostella): > 80%
melting point: 233 to 235 °C

CSC1=NC2C=C(C(=O)NCC3CC3)C(NC(=O)c3cc(C(F)(F)F)nn3-c3ncccc3Cl)=C(Cl)C2S1 (centres unmarked) [Compound T94.1.14, 7-chloro-6-{[2-(3-chloro-pyridin-2-yl)-5-trifluoromethyl-2H-pyrazole-3-carbonyl]-amino}-2-methylsulfanyl-3a,7a-dihydro-benzothiazole-5-carboxylic acid cyclopropylmethyl-amide]
inhibition at 400 ppm (Spodoptera littoralis): > 80%
inhibition at 400 ppm (Plutella xylostella): > 80%
melting point: 221 to 223 °C

COC1=NC2C=C(C(=O)NCC3CC3)C(NC(=O)c3cc(C(F)(F)F)nn3-c3ncccc3Cl)=C(Cl)C2S1 (centres unmarked) [Compound T115.1.14, 7-chloro-6-{[2-(3-chloro-pyridin-2-yl)-5-trifluoromethyl-2H-pyrazole-3-carbonyl]-amino}-2-methoxy-3a,7a-dihydro-benzothiazole-5-carboxylic acid cyclopropylmethyl-amide]
inhibition at 400 ppm (Spodoptera littoralis): > 80%
inhibition at 400 ppm (Plutella xylostella): > 80%
